d = 2'-deoxy (DNA); r = 2'-OH (RNA)
Columns and labels:
KELLY cells = experiment: Etoposide IC50 in siRNA-transfected cells, Cell Titer Glo 2.0 viability (Example 9); format: cell-based
SKNAS cells [1] = experiment: as above; format: cell-based
CHLA-172 cells = experiment: as above; format: cell-based
CHLA-136 cells [2] = experiment: as above; format: cell-based; conditions: CHLA-136 cells transfected with the labelled siRNA; etoposide added 24 hours post transfection, 72 hour incubation
GPC2 mRNA = GPC2 mRNA knockdown in multiple cancer cell lines, 96 hour (Example 3); format: cell-based, human; conditions: 96 hour incubation
Experimental: siRNAs 1-5 from Table 7 were diluted to 40 nM in OptiMEM media and mixed in a 1:3 ratio (weight by volume) with RNAiMAX. This was incubated for 15 minutes at room temperature and dispensed onto cells plated in a 6 well tissue culture plate. Total RNA samples were collected at either 72 hours post transfection to compare knockdown efficiency (FIG. 2A), or at 24, 48, 72 or 96 hours post transfection to determine the extent of GPC2 mRNA knockdown over time (FIG. 2B). Expression levels of mRNA of GPC2 were measured in these samples using primers specific for GPC2 obtained commercially from Thermofisher (Carlsbad, Calif.) and standard qPCR technique.
GPC2 mRNA knockdown and changes in cell viability were assessed in multiple cancer cell lines. Cells were transfected with either a scrambled control siRNA or with GPC2 siRNA sequence 3 or sequence 5 from Table 7 using the RNAiMAX Lipofectamine kit (Invitrogen, Carlsbad, Calif.) as previously described in Example 2, either in 96 well format (for viability assays) or 6 well format (for knockdown assessment). Following a 96 hour incubation period, cells were washed and the viability measurement was assessed using Cell Titer Glo 2.0. Total RNA was isolated from the 6 well plate samples to determine knockdown efficiency.

SKNAS cells [3] = experiment: Cisplatin IC50 in siRNA-transfected cells, Cell Titer Glo 2.0 viability (Example 5); format: cell-based
Method in brief: (§1)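 siRNA knockdown of GPC2 (sequences 3 or 5; scrambled control) by lipofection → 24 h later cisplatin 0 to 30 uM → 72 h → CellTiter-Glo 2.0 luminescence. Total RNA taken to confirm knockdown.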

SNU16 cells = experiment: as above; format: cell-based
Method in brief: as §1

CHP212 cells = experiment: as above; format: cell-based
Method in brief: as §1

SH-SY5Y cells = experiment: as above; format: cell-based
Method in brief: as §1

TC32 cells = experiment: as above; format: cell-based
Method in brief: as §1

TC71 cells = experiment: as above; format: cell-based
Method in brief: as §1

SKNAS cells [4] = experiment: Doxorubicin IC50 in siRNA-transfected cells, Cell Titer Glo viability (Example 8); format: cell-based
CHLA-136 cells [5] = experiment: as above; format: cell-based
GPC2 protein = GPC2 protein expression by flow cytometry of immunostained cells after siRNA transfection; format: cell-based, human
Experimental: The extent of GPC2 mRNA reduction (knockdown) and corresponding protein level expression changes were assessed in three neuroblastoma cell lines following siRNA knockdown of GPC2. The CHP212 neuroblastoma cell line (FIG. 5A and FIG. 5D), the SH-SY5Y neuroblastoma cell line (FIG. 5B and FIG. 5E) and the CHLA90 neuroblastoma cell line (FIG. 5C and FIG. 5F) were transfected with GPC2 siRNA sequences 5 and 7 from Table 7 and a scrambled control siRNA using the RNAiMAX Lipofectamine kit (Invitrogen, Carlsbad, Calif.) as previously described. Following a 24, 48, or 72 hour incubation period, cells were washed and total RNA was isolated for measuring GPC2 mRNA expression. For protein analysis, cells were fixed, immunostained using an antibody against GPC2 protein, protein expression was measured via flow cytometry. As shown, GPC2 mRNA knockdown was observed beginning at the 24 hr time point and lasted for at least 72 hours. GPC2 protein expression started to decrease at the 48 hr time point.

GPC2 siRNA 5: siRNA duplex: sense CUCAGUAGCCCAGCACUCU[dT][dT] (SEQ ID NO: 211), anti-sense AGAGUGCUGGGCUACUGAG[dT][dT] (SEQ ID NO: 212) (sense CUCAGUAGCCCAGCACUCUTT; antisense AGAGUGCUGGGCUACUGAGTT; sugars from the 5' end r19 d2, backbone not given here; listed as Homo sapiens)
Data Summary: effect of knockdown on sensitivity to etoposide (KELLY cells; KELLY): increases sensitivity to etoposide | IC50 (KELLY cells; KELLY cells transfected with the labelled siRNA, etoposide added 24 hours post transfection, 72 hour incubation): 60 nM | Data Summary: effect of knockdown on sensitivity to etoposide (SKNAS cells [1]; SKNAS): increases sensitivity to etoposide | IC50 (SKNAS cells [1]; SKNAS cells transfected with the labelled siRNA, etoposide added 24 hours post transfection, 72 hour incubation): 20 nM | Data Summary: effect of knockdown on sensitivity to etoposide (CHLA-172 cells; CHLA-172): increases sensitivity to etoposide | IC50 (CHLA-172 cells; CHLA-172 cells transfected with the labelled siRNA, etoposide added 24 hours post transfection, 72 hour incubation): 900 nM | IC50 (CHLA-136 cells [2]): 80 nM | % GPC2 knockdown (GPC2 mRNA; CHP212 (Neuroblastoma)): 65% | % GPC2 knockdown (GPC2 mRNA; COV362 (Ovarian Carcinoma)): 79% | % GPC2 knockdown (GPC2 mRNA; GIST-T1 (Gastrointestinal Stromal)): 76% | % GPC2 knockdown (GPC2 mRNA; IMR32 (Neuroblastoma)): 25% | % GPC2 knockdown (GPC2 mRNA; MCF7 (Breast)): 82% | % GPC2 knockdown (GPC2 mRNA; RH30 (Rhabdomyosarcoma)): 83% | % GPC2 knockdown (GPC2 mRNA; RH41 (Rhabdomyosarcoma)): 60% | % GPC2 knockdown (GPC2 mRNA; SKNAS (Neuroblastoma)): 44% | % GPC2 knockdown (GPC2 mRNA; SNU16 (Gastric)): 25% | % GPC2 knockdown (GPC2 mRNA; TC32 (Ewing's Sarcoma)): 57% | % GPC2 knockdown (GPC2 mRNA; TC71 (Ewing's Sarcoma)): 33% | % GPC2 knockdown (GPC2 mRNA; TOV112D (Ovarian Carcinoma)): 78% | GPC2 knockdown across the cell lines of Table 8 (GPC2 mRNA; multiple cancer cell lines): GPC2 knockdown was observed in each cell line | Data Summary: effect of knockdown on sensitivity to cisplatin (SKNAS cells [3]; SKNAS): increases sensitivity to | IC50 (SKNAS cells [3]; SKNAS cells transfected with the labelled siRNA, cisplatin added 24 hours post transfection, 72 hour incubation): 9000 nM | Data Summary: effect of knockdown on sensitivity to cisplatin (SNU16 cells; SNU16): does not increase | IC50 (SNU16 cells; SNU16 cells transfected with the labelled siRNA, cisplatin added 24 hours post transfection, 72 hour incubation): 16000 nM | Data Summary: effect of knockdown on sensitivity to cisplatin (CHP212 cells; CHP212): increases sensitivity to | IC50 (CHP212 cells; CHP212 cells transfected with the labelled siRNA, cisplatin added 24 hours post transfection, 72 hour incubation): 6000 nM | Data Summary: effect of knockdown on sensitivity to cisplatin (SH-SY5Y cells; SH-SY5Y): increases sensitivity to | IC50 (SH-SY5Y cells; SH-SY5Y cells transfected with the labelled siRNA, cisplatin added 24 hours post transfection, 72 hour incubation): 9300 nM | Data Summary: effect of knockdown on sensitivity to cisplatin (TC32 cells; TC32): does not increase | IC50 (TC32 cells; TC32 cells transfected with the labelled siRNA, cisplatin added 24 hours post transfection, 72 hour incubation): 1200 nM | Data Summary: effect of knockdown on sensitivity to cisplatin (TC71 cells; TC71): does not increase | IC50 (TC71 cells; TC71 cells transfected with the labelled siRNA, cisplatin added 24 hours post transfection, 72 hour incubation): 1400 nM | Data Summary: effect of knockdown on sensitivity to doxorubicin (SKNAS cells [4]; SKNAS): increases sensitivity to | IC50 (SKNAS cells [4]; SKNAS cells transfected with the labelled siRNA, doxorubicin added 24 hours post transfection, 72 hour incubation): 20 nM | Data Summary: effect of knockdown on sensitivity to doxorubicin (CHLA-136 cells [5]; CHLA-136): KD with sequence 5 increases | IC50 (CHLA-136 cells [5]; CHLA-136 cells transfected with the labelled siRNA, doxorubicin added 24 hours post transfection, 72 hour incubation): 80 nM | GPC2 protein expression (Mean Fluorescence (FL1) Intensity) (GPC2 protein; CHLA90 cells, at 72 hours (FIG. 5F)): Reduced GPC2 protein expression | Time point at which GPC2 protein expression started to decrease (GPC2 protein; CHP212, SH-SY5Y and CHLA90 neuroblastoma cell lines): 48 h | GPC2 protein expression (Mean Fluorescence (FL1) Intensity) (GPC2 protein; CHP212 cells, at 48 and 72 hours (FIG. 5D)): Reduced GPC2 protein expression | GPC2 protein expression (Mean Fluorescence (FL1) Intensity) (GPC2 protein; SH-SY5Y cells, at 48 and 72 hours (FIG. 5E)): Reduced GPC2 protein expression

From patent US20210171948A1, “COMPOSITIONS AND METHODS FOR TARGETING GLYPICAN-2 IN THE TREATMENT OF CANCER” (Shepherd Therapeutics, Inc., priority 2019, published 2021)
